This note sets out measurements from patent US20080039444A1, “COMPOUNDS” (GLAXO GROUP LIMITED, priority 2006, published 2008).

The target of one data set is T1, human H1 receptor (Homo sapiens, UniProt P35367).
T1 construct: expressed in transfected cells
Put plainly: Histamine H1 functional antagonist assay (FLIPR): determination of antagonist pA2. Type of data set: cell-based. On the procedure:
The human H1 receptor is cloned using known procedures described in the literature [Biochem. Biophys. Res. Commun., 201(2):894 (1994)]. Chinese hamster ovary (CHO) cells stably expressing the human H1 receptor are generated according to known procedures described in the literature [Br. J. Pharmacol., 117(6):1071 (1996)].
Histamine H1 functional antagonist assay: Determination of antagonist pA2 and duration
The histamine H1 receptor expressing CHO cells are seeded into non-coated black-walled clear bottom 96-well tissue culture plates as described above. Following overnight culture, growth medium is removed from each well, washed with 200 μl phosphate buffered saline (PBS) and is replaced with 50 μl loading dye (250 μM Brilliant Black, 1 μM Fluo-4 diluted in Tyrodes buffer+probenecid (145 mM NaCl, 2.5 mM KCl, 10 mM HEPES, 10 mM D-glucose, 1.2 mM MgCl2, 1.5 mM CaCl2, 2.5 mM probenecid, pH adjusted to 7.40 with NaOH 1.0 M)). Cells are incubated for 45 min at 37° C. The loading buffer is removed and the cells are washed as above, and 90 μl of Tyrodes buffer+probenecid is added to each well. 10 μl of test compound, diluted to the required concentration in Tyrodes buffer+probenecid (or 10 μl Tyrodes buffer+probenecid as a control) is added to each well and the plate is incubated for 30 min at 37° C., 5% CO2. The plates are then placed into a FLIPR™ (Molecular Devices, UK) to monitor cell fluorescence (λex=488 nm, λEM=540 nm) in the manner described in Sullivan et al., (In: Lambert DG (ed.), Calcium Signaling Protocols, New Jersey: Humana Press, 1999, 125-136) before and after the addition of 50 μl histamine over a concentration range of 1 mM-0.1 nM. The resultant concentration response curves are analysed by non-linear regression using a standard four parameter logistic equation to determine the histamine EC50, the concentration of histamine required to produce a response of 50% of the maximum response to histamine. The antagonist pA2 is calculated using the following standard equation: pA2=log(DR-1)- log[B] where DR=dose ratio, defined as EC50antagonist-treated/EC50control and [B]=concentration of antagonist.

Data set [1] in a line: CNS penetration (intravenous bolus or infusion at steady state, blood and brain levels). The format is in vivo, rat. The note with it: male CD Sprague Dawley rats. As to the method:
(i) CNS penetration by bolus administration
Compounds are dosed intravenously at a nominal dose level of 1 mg/kg to male CD Sprague Dawley rats. Compounds are formulated in 5% DMSO/45% PEG200/50% water. Blood samples are taken under terminal anaesthesia with isoflurane at 5 min post-dose and the brains are also removed for assessment of brain penetration. Blood samples are taken directly into heparinised tubes. Blood samples are prepared for analysis using protein precipitation and brain samples are prepared using extraction of drug from brain by homogenisation and subsequent protein precipitation. The concentration of parent drug in blood and brain extracts is determined by quantitative LC-MS/MS analysis using compound-specific mass transitions.
(ii) CNS penetration following intravenous infusion at steady state
A loading dose of the compounds is given to male CD Sprague Dawley rats at a nominal dose level of 0.4 mg/kg. The compounds are then infused intravenously for 4 h at a nominal dose level of 0.1 mg/kg/h. Compounds are formulated in 2% DMSO/30% PEG200/68% water. Serial or terminal blood samples are taken at 0.5, 1.5, 2.5, 3, 3.5 and 4 h post dose. The final blood sample is collected under terminal anaesthesia with isoflurane and the brains are also removed for assessment of brain penetration. Blood samples are taken directly into heparinised tubes. Blood samples are prepared for analysis using protein precipitation and brain samples are prepared using extraction of drug from brain by homogenisation and subsequent protein precipitation. The concentration of parent drug in blood and brain extracts is determined by quantitative LC-MS/MS analysis using compound-specific mass transitions.

T1 sequence (P35367 whole entry): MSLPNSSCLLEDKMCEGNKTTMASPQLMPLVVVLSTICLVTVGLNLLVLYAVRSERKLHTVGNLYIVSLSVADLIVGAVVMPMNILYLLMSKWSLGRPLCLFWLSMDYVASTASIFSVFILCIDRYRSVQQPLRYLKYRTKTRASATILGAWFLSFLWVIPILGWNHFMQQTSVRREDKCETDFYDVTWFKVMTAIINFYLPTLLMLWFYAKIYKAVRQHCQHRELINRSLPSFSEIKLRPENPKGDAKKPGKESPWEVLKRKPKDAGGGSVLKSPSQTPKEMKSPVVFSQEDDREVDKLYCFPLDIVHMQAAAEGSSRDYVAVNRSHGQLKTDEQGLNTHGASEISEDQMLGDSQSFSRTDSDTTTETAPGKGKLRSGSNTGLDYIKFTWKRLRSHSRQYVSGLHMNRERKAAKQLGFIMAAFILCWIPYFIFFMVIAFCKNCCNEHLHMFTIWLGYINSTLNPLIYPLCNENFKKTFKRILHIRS

Turning to `O=c1c2ccccc2c(Cc2ccc(Cl)cc2)nn1C[C@H]1CCCN1CCCCc1ccc(OCCCN2CCCCCC2)cc1` [Example 24, 4-[(4-Chlorophenyl)methyl]-2-({(2R)-1-[4-(4-{[3-(hexahydro-1H-azepin-1-yl)propyl]oxy}phenyl)butyl]-2-pyrrolidinyl}methyl)-1(2H)-phthalazinone free base], the antagonist equilibrium constant (Kb) at human H1 receptor is about 1.26 nM. For the same compound, in data set [1], the “CNS penetration compared with azelastine” value is “lower CNS penetration than azelastine”.
